Results reported in patent publication US6927231B2, “Use of creatine for the amelioration of oxidative stress” (2458781 Canada Inc., priority 2001, dated 2005).
Where “and” joins values, the source holds several entries; their conditions need not be identical. Equal values may be shown once.

Tests used:
[1] = Acid-soluble thiol concentration in the plasma during N-acetylcysteine ingestion; format: in vivo, human; settings: healthy subject; NAC approximately 0.1-0.4 g per week, periods 1, 2, 5 and 6
Experimental: (§1) During the periods 1,2,5 and 6, the subject ingested small doses of N-acetylcysteine (NAC) (approximately 0.1-0.4 g per week) to adjust the acid-soluble thiol concentration in the plasma to an average value of about 15 μM, which corresponds approximately to the mean of healthy young subjects (see FIG. 1). In period 2, the subject ingested 3-4 times per week creatine at a dosis of approximately 3-4 g per week. In the period 4 and 6, the subject ingested creatine 6-7 times per week at a mean dose of approximately 6-8 g per week. Creatine was discontinued twice for one week each after the cystine level fell to a value of 40 and 41 μM, respectively. […] The P values illustrate the statistical significance for the differences between different treatment periods.

[2] = Plasma cystine concentration of a subject during creatine treatment periods; format: in vivo, human; settings: healthy subject
From the text: FIG. 3 illustrates the results of a study that is described in more detail in example 1. The ordinate (c) describes the plasma cystine concentration in μMol. The columns 1-6 describe the mean plasma cystine concentrations during 6 successive treatment periods of a subject as described in example 1.
as §1

## CC(=O)N[C@@H](CS)C(=O)O [N-acetylcysteine]
[1]
  acid-soluble thiol concentration in the plasma, average value: about 15 μM

## CN(CC(=O)O)C(=N)N [creatine]
[2]; creatine discontinued twice for one week each after the level fell to this value
  cystine level at which creatine was discontinued: 40 µM and 41 µM
[2]; relatively small oral doses of creatine (approx. 3-8 g per week) during a total period of about 2.5 years, level corresponds to 20-35 year-old healthy subjects
  plasma cystine level: approximately 50 μ
